Results taken from patent US20210040118A1, “IMMUNOMODULATORS, COMPOSITIONS AND METHODS THEREOF” (BETTA PHARMACEUTICALS CO., LTD, priority 2018, published 2021).

Biological target: T1, PD-1/PD-L1 (Homo sapiens, UniProt Q9NZQ7)
T1 construct: Recombinant human PD-L1 protein (19-238) with a His-tag at the C-terminus; purchased AcroBiosystems PD1-H5229 (PD-L1); PD1-H5257 (PD-1)
Experiment: PD-1/PD-L1 homogenous time-resolved fluorescence (HTRF) binding assay
Details: recombinant human PD-L1 (19-238) His-tag / human PD-1 (25-167) Fc tag, class symbols
Summary of the method: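 HTRF binding of human PD-1 (25-167, Fc-tagged) at 3 nM and PD-L1 (19-238, His-tagged) at 10 nM, preincubated 40 min with inhibitor in PBS pH 7.4, 0.05% Tween-20, 0.1% BSA, 1% DMSO, 25°C. Eu anti-IgG (1 nM) and anti-His-APC (20 nM) added, 60 min; 665/620 nm ratio; IC50 from curve fit.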

T1 sequence (Q9NZQ7 19-238): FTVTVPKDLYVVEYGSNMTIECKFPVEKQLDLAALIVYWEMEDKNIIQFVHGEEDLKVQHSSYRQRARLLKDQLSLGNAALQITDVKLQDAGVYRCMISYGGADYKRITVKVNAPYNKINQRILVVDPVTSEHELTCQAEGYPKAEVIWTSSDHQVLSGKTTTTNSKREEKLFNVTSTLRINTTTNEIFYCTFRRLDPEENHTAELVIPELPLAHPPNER

Row | SMILES | IC50 [nM]
1 | O=C(Nc1cccc(-c2cccc3c2CCN3C(=O)c2nc3c(s2)CNCC3)c1Cl)c1ncc(CNCCO)s1 [Example 101, N-(2-chloro-3-(1-(4,5,6,7-tetrahydrothiazolo[5,4-c]pyridine-2-carbonyl)indolin-4-yl)phenyl)-5-(((2-hydroxyethyl)amino)methyl)thiazole-2-carboxamide] | < 25
2 | Cc1c(NC(=O)c2nc3c(s2)CNCCC3)cccc1-c1cccc(NC(=O)c2nc3c(s2)CNCCC3)c1C [Example 30, N,N′-(2,2′-dimethyl-[1,1′-biphenyl]-3,3′-diyl)bis(5,6,7,8-tetrahydro-4H-thiazolo[5,4-c]azepine-2-carboxamide)] | < 25
3 | Cc1c(Nc2nccc3cc(CNCC(=O)O)cnc23)cccc1-c1cccc2c1CCN2C(=O)C1=NC2CCN(CC(=O)O)CC2S1 (centres unmarked) [Example 160, ((8-((3-(1-(5-(carboxymethyl)-3a,4,5,6,7,7a-hexahydrothiazolo[5,4-c]pyridine-2-carbonyl)indolin-4-yl)-2-methylphenyl)amino)-1,7-naphthyridin-3-yl)methyl)glycine] | < 25
4 | COC(=O)NC1(CN2CCc3nc(C(=O)N4CCc5c(-c6cccc7c6CCN7C(=O)c6nc7c(s6)CN(CC6(NC(=O)OC)CC6)CC7)cccc54)sc3C2)CC1 [Example 132, dimethyl (((([4,4′-biindoline]-1,1′-dicarbonyl)bis(6,7-dihydrothiazolo[5,4-c]pyridine-2,5(4H)-diyl))bis(methylene))bis(cyclopropane-1,1-diyl))dicarbamate] | 25 to 100
5 | O=C(Nc1cccc(-c2cccc(NC(=O)c3ncc(CNCCO)s3)c2Cl)c1Cl)c1ncc(CNCCO)s1 [Example 66, N,N′-(2,2′-dichloro-[1,1′-biphenyl]-3,3′-diyl)bis(5-(((2-hydroxyethyl)amino)methyl)thiazole-2-carboxamide)] | < 25
6 | Cc1c(NC(=O)c2nnc(CN)s2)cccc1-c1cccc(NC(=O)c2nnc(CN)s2)c1C [Example 20, N,N′-(2,2′-dimethyl-[1,1′-biphenyl]-3,3′-diyl)bis(5-(aminomethyl)-1,3,4-thiadiazole-2-carboxamide)] | < 25
7 | Cc1c(NC(=O)c2nnc3n2CCNC3)cccc1-c1cccc(NC(=O)c2nnc3n2CCNC3)c1C [Example 39, N,N′-(2,2′-dimethyl-[1,1′-biphenyl]-3,3′-diyl)bis(5,6,7,8-tetrahydro-[1,2,4]triazolo[4,3-a]pyrazine-3-carboxamide)] | < 25
8 | Cc1c(NC(=O)c2nc3c(s2)CN(CC(C)(C)CO)CC3)cccc1-c1cccc(NC(=O)c2nc3c(s2)CN(CC(C)(C)CO)CC3)c1C [Example 76, N,N′-(2,2′-dimethyl-[1,1′-biphenyl]-3,3′-diyl)bis(5-(3-hydroxy-2,2-dimethylpropyl)-4,5,6,7-tetrahydrothiazolo[5,4-c]pyridine-2-carboxamide)] | < 25
9 | Cc1c(NC(=O)c2nnc(CNCCO)s2)cccc1-c1cccc(NC(=O)c2nnc(CNCCO)s2)c1C [Example 73, N,N′-(2,2′-dimethyl-[1,1′-biphenyl]-3,3′-diyl)bis(5-(((2-hydroxyethyl)amino)methyl)-1,3,4-thiadiazole-2-carboxamide)] | < 25
10 | Cc1c(NC(=O)c2ncc(CN3CCCC3)s2)cccc1-c1cccc(NC(=O)c2ncc(CN3CCCC3)s2)c1C [Example 29, N,N′-(2,2′-dimethyl-[1,1′-biphenyl]-3,3′-diyl)bis(5-(pyrrolidin-1-ylmethyl)thiazole-2-carboxamide)] | < 25
11 | Cc1nc(C(=O)Nc2cccc(-c3cccc4c3CCN4C(=O)c3nc(C)c(CN4CCCC[C@H]4C(=O)O)s3)c2)sc1CN1CCCC[C@H]1C(=O)O [Example 62, (S)-1-((2-(3-(1-(5-(((S)-2-carboxypiperidin-1-yl)methyl)-4-methylthiazole-2-carbonyl)indolin-4-yl)phenylcarbamoyl)-4-methylthiazol-5-yl)methyl)piperidine-2-carboxylic acid] | < 25
12 | Cc1ccc(-c2ccc(C)c(NC(=O)c3nc4c(s3)CNCC4)c2C)c(C)c1NC(=O)c1nc2c(s1)CNCC2 [Example 94, N,N′-(2,2′,4,4′-tetramethyl-[1,1′-biphenyl]-3,3′-diyl)bis(4,5,6,7-tetrahydrothiazolo[5,4-c]pyridine-2-carboxamide)] | < 25
13 | Cc1c(Nc2nccc3cc(CNCC(=O)O)cnc23)cccc1-c1cccc2c1CCN2C(=O)C1=NC2CCN(CCC(=O)O)CC2S1 (centres unmarked) [Example 161, 3-(2-(4-(3-((3-(((carboxymethyl)amino)methyl)-1,7-naphthyridin-8-yl)amino)-2-methylphenyl)indoline-1-carbonyl)-3a,6,7,7a-tetrahydrothiazolo[5,4-c]pyridin-5(4H)-yl)propanoic acid] | < 25
14 | O=C(c1nc2c(s1)CN(Cc1nn[nH]n1)CC2)N1CCc2c(-c3cccc4c3CCN4C(=O)c3nc4c(s3)CN(Cc3nn[nH]n3)CC4)cccc21 [Example 125, [4,4′-biindoline]-1,1′-diylbis((5-((2H-tetrazol-5-yl)methyl)-4,5,6,7-tetrahydrothiazolo[5,4-c]pyridin-2-yl)methanone)] | < 25
15 | Cc1nc(C(=O)Nc2cccc(-c3cccc(NC(=O)c4nc(C)c(CNCCO)s4)c3C)c2C)sc1CNCCO [Example 51, N,N′-(2,2′-dimethylbiphenyl-3,3′-diyl)bis(5-((2-hydroxyethylamino)methyl)-4-methylthiazole-2-carboxamide)] | < 25
16 | NCc1nc(C(=O)N2CCc3c(-c4cccc5c4CCN5C(=O)c4n[nH]c(CN)n4)cccc32)n[nH]1 [Example 137, (5-((12-azanyl)methyl)-1H-1,2,4-triazol-3-yl)(1′-(5-(aminomethyl)-1H-1,2,4-triazole-3-carbonyl)-[4,4′-biindolin]-1-yl)methanone] | 100 to 200
17 | CNCc1cnc(C(=O)N2CCc3c(-c4cccc5c4CCN5C(=O)c4ncc(CNC)s4)cccc32)s1 [Example 113, [4,4′-biindoline]-1,1′-diylbis((5-((methylamino)methyl)thiazol-2-yl)methanone)] | < 25
18 | Cc1nc(C(=O)Nc2cccc(-c3cccc4c3CCN4C(=O)c3nc(C)c(CN4CCCC[C@H]4C(=O)O)s3)c2Cl)sc1CN1CCCC[C@H]1C(=O)O [Example 60, (S)-1-((2-(3-(1-(5-(((S)-2-carboxypiperidin-1-yl)methyl)-4-methylthiazole-2-carbonyl)indolin-4-yl)-2-chlorophenylcarbamoyl)-4-methylthiazol-5-yl)methyl)piperidine-2-carboxylic acid] | < 25
19 | O=C(O)CN1C2CCC1c1sc(C(=O)N3CCc4c(-c5cccc6c5CCN6C(=O)c5nc6c(s5)C5CCC(C6)N5CC(=O)O)cccc43)nc1C2 [Example 110, 2,2′-(([4,4′-biindoline]-1,1′-dicarbonyl)bis(5,6,7,8-tetrahydro-4H-5,8-epiminocyclohepta[d]thiazole-2,9-diyl))diacetic acid] | < 25
20 | Cc1nc(C(=O)N2CCc3c(-c4cccc5c4CCN5C(=O)c4nc(C)c(CN[C@H](C(=O)O)C5CCOCC5)s4)cccc32)sc1CN[C@H](C(=O)O)C1CCOCC1 [Example 57, (2S,2'S)-2,2′-(2,2′-(4,4′-biindoline-1,1′-diylbis(oxomethylene))bis(4-methylthiazole-5,2-diyl))bis(methylene)bis(azanediyl)bis(2-(tetrahydro-2H-pyran-4-yl)acetic acid)] | < 25
